Experimental data published in publication PMC10975611, “Heterocycles 52: The Drug-Likeness Analysis of Anti-Inflammatory Thiazolo[3,2-b][1,2,4]triazole and Imidazo[2,1-b][1,3,4]thiadiazole Derivatives” (Pharmaceuticals, 2024).

How the values were obtained:
[1] = parameters: method as in doi:10.31925/farmacia.2018.5.20, PMID 30248903; conditions: acute inflammation, compared to diclofenac; cited from earlier work
[2] = parameters: method as in doi:10.31925/farmacia.2018.5.20, PMID 30248903; conditions: in vivo; cited from earlier work
[3] = Lipophilicity by reversed-phase thin-layer chromatography (RP-TLC), isopropanol-water mobile phase; format: physicochemical; conditions: for mRM (arithmetic mean of the experimental retention factors RM): RP-18F254s plates, isopropanol 70–90% in water; for RM0 (relative lipophilicity, RM extrapolated to pure water): Soczewinski Wachtmeister equation, isopropanol 70–90%; for lipophilicity (in words): chromatographic lipophilicity profile / lipophilicity descriptors; for PC1(RM): score of first principal component of RM values at isopropanol 70–90%; for b (slope): slope of RM versus isopropanol concentration; for φ0 (chromatographic hydrophobic index): φ0 = RM0/b
Description: Lipophilicity was assessed by RP-TLC, using RP-[…] standard silica gel plates (20 × 10 cm) as the stationary phase. An isopropanol:water binary mixture was used as the mobile phase, with different isopropanol concentrations 70%, 75%, 80%, 85%, 90% for thiazolo[3,2-b][1,2,4]triazole (1a–16a) and imidazo[2,1-b][1,3,4]thiadiazole (1b–16b) compounds.
The standard solutions (1 mg/mL) used to investigate the lipophilicity of the synthesized compounds were prepared in dichloromethane (1a–16a compounds) and dimethylsulfoxide (1b–16b compounds). From the obtained solutions, 2 µL was applied manually on the chromatographic plates, at 15 mm from the baseline and 5 mm from the edges of the plate at a spot distance of 12 mm. This procedure was repeated three times. The chromatographic plate upward elution was performed in a chromatographic chamber previously saturated for 30 min with mobile phase, at normal atmospheric pressure and room temperature. The migration distance of the eluent was 80 mm. The chromatographic plates were visually inspected under UV light at λ = 254 nm to identify the compounds. In order to minimize possible experimental errors, three measurements were performed for each mobile phase. The retention factors (Rf) were calculated as the average of three determinations in each case.
Based on the Rf values, a variety of parameters can be determined to estimate the lipophilicity of the compounds. The isocratic retention factor (RM) was determined using the Bate–Smith and Westall equation [34]:RM = log(1/Rf − 1) where Rf = x/y and x = the migration distance of the compound, and y = the migration distance of the solvent front.
There is usually a linear correlation between the RM values and the concentration of the organic component in the mobile phase. For a better estimation of lipophilicity, RM0 was determined as the extrapolated retention factor, considering pure water as the mobile phase (Soczewinski Wachtmeister equation):RM = RM0 + bC where b is the slope of the curve, which indicates the rate at which the solubility of the compound increases in the mobile phase, C is the concentration of the isopropanol in the mobile phase, and RM0 is the RM of the compound when the concentration of isopropanol is zero (extrapolated value).
To estimate the lipophilicity of the compounds, φ0, representing the chromatographic hydrophobicity index, was also determined. It corresponds to the percentage (by volume) of the organic component in the mobile phase and can be determined according to the following formula:φ0 = RM0/b
In order to assess the lipophilicity of compounds, other more relevant lipophilicity parameters have been used, such as the arithmetic mean of the experimental retention factors (mRM), and the score associated with the first principal component (PC1(RM)) obtained by applying principal component analysis (PCA) to the retention parameters RM [35, 36]. The determination of these parameters eliminates the errors that appear during the extrapolation procedure (when determining RM0) so that the results are more accurate.

Structure (SMILES) | in vivo anti-inflammatory activity [1] | pain threshold [2] | mRM (arithmetic mean of the experimental retention factors RM) [3] | RM0 (relative lipophilicity, RM extrapolated to pure water) [3] | lipophilicity (in words) [3] | PC1(RM) [3] | b (slope) [3] | φ0 (chromatographic hydrophobic index) [3]
COc1ccc(-c2cn3nc(-c4ccccc4)sc3n2)cc1 [Compound 4b] | significantly reduced acute inflammation in vivo | increased pain threshold | 0.071 | 1.805 | low lipophilicity | −0.362 | −0.022 | 83.16
c1ccc(-c2cn3nc(-c4ccccc4)sc3n2)cc1 [Compound 1b] | significantly reduced acute inflammation in vivo | increased pain threshold | 0.072 | 1.955 | – | −0.365 | −0.024 | 83.18
COc1ccc(-c2nn3cc(-c4ccccc4)nc3s2)cc1 [Compound 9b] | significantly reduced acute inflammation in vivo | increased pain threshold | 0.138 | 1.900 | low lipophilicity | −0.596 | −0.022 | 85.59
COc1ccc(-c2cn3nc(-c4ccc(OC)cc4)sc3n2)cc1 [Compound 12b] | significantly reduced acute inflammation in vivo | increased pain threshold | 0.097 | 1.460 | low lipophilicity | −0.450 | −0.017 | 85.89
NS(=O)(=O)c1ccc(-c2nc3scc(-c4ccccc4)n3n2)cc1 [Compound 13a] | significantly reduced acute inflammation in vivo | increased pain threshold | −0.555 | 1.472 | the least lipophilic compounds | 1.875 | −0.026 | 57.72
COc1ccc(-c2csc3nc(-c4ccccc4)nn23)cc1 [Compound 4a] | significantly reduced acute inflammation in vivo | increased pain threshold | 0.031 | 1.612 | low lipophilicity | −0.216 | −0.020 | 81.40
COc1ccc(-c2nc3scc(-c4ccccc4)n3n2)cc1 [Compound 9a] | significantly reduced acute inflammation in vivo | increased pain threshold | 0.006 | 1.705 | low lipophilicity | −0.127 | −0.021 | 80.40
Clc1ccc(-c2nn3cc(-c4ccccc4)nc3s2)cc1 [Compound 5b] | significantly reduced acute inflammation in vivo | increased pain threshold | 0.144 | 2.270 | – | −0.624 | −0.027 | 85.32
